In patent US20250136606A1, “MODULATORS OF TRPML, THEIR COMPOSITIONS AND METHODS OF USE” (Caraway Therapeutics, Inc., priority 2021, published 2025):
Each block holds one molecule with its values, some of them ahead of it.

Key:
Assay type in all cases: cell-based
Conditions in all cases: fluorescent calcium assay
TRPML2 = biological target: T1, TRPML2 (Homo sapiens, UniProt Q8IZK6); assay: Fluorescent TRPML2 assay (performed as for TRPML1, substituting the TRPML2 subtype)
T1 construct: expressed in transfected cells
T1 sequence (Q8IZK6 1-566): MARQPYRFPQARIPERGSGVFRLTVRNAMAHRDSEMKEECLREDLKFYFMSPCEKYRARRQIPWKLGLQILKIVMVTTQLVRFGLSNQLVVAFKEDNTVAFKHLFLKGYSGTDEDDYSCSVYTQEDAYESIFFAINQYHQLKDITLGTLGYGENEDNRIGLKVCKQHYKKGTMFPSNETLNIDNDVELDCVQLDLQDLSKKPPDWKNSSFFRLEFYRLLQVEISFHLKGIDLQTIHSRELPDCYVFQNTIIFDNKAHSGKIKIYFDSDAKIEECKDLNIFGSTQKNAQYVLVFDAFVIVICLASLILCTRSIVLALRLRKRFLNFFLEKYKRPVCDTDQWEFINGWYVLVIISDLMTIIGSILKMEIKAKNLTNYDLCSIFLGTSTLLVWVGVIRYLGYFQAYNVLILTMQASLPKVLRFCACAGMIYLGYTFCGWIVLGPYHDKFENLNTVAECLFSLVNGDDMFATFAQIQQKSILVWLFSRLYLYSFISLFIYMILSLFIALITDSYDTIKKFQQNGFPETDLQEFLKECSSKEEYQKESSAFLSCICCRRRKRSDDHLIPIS
Outline: (§1)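 Compound series (final 6 nM-20 μM, half-log, triplicate) were added to Fluo4-AM-loaded HEK-293 Trex cells in 10 mM calcium Ringer's, expressing the human TRPML subtype after doxycycline 0.5 ug/mL induction. Percent activity versus positive/negative controls from 480/540 nm fluorescence; EC50 by non-linear regression.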

TRPML3 = biological target: T2, TRPML3 (Homo sapiens, UniProt Q8TDD5); assay: Fluorescent TRPML3 assay (performed as for TRPML1, substituting the TRPML3 subtype)
T2 construct: expressed in transfected cells
T2 sequence (Q8TDD5 1-553): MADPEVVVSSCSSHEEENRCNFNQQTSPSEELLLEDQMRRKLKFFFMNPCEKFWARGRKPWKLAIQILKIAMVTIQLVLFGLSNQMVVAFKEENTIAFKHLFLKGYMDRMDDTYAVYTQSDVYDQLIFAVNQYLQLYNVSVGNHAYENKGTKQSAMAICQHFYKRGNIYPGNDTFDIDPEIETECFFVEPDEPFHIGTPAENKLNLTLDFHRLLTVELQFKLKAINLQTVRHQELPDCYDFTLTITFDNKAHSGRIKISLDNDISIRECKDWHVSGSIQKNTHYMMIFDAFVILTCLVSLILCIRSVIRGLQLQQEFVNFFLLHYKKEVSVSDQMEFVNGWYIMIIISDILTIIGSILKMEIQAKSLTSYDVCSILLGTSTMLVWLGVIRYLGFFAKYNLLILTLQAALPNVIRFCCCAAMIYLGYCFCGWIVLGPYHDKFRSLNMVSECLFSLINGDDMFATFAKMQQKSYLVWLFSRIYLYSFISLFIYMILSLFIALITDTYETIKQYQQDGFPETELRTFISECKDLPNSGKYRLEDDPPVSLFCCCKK
Outline: as §1

TRPML1 = TRPML1 (Homo sapiens, UniProt Q9GZU1); assay: Fluorescent TRPML1 assay (Fluo4-AM calcium fluorescence in doxycycline-induced HEK-293 Trex cells)
TRPML1, sequence (Q9GZU1 whole entry L15A/L16A/L577A/L578A, form open): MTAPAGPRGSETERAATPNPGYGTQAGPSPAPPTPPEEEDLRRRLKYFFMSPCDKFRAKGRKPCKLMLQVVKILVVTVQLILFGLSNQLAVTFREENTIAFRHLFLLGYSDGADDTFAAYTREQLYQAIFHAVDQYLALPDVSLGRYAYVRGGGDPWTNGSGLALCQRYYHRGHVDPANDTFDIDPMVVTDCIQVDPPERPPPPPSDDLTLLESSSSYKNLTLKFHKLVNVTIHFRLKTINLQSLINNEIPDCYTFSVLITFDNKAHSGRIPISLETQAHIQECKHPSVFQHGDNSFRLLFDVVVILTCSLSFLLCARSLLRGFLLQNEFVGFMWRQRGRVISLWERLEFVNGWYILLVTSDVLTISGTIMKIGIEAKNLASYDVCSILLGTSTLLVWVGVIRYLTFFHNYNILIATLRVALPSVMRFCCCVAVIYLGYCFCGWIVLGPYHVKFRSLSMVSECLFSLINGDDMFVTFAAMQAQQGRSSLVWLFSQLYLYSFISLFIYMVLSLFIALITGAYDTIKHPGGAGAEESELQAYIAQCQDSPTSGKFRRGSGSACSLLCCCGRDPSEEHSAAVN
Outline: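 hTRPML1 (mutated for cell-surface expression) in HEK-293 Trex, dox 0.5 ug/mL o/n; Fluo4-AM 1 uM ~60 min, then ~60 min de-esterification, dark; modified Ringer's + 10 mM Ca. Cmpds 20 uM–6 nM final, half-log, n=3. Ex480/Em540; % activity vs ctrls; EC50 by nonlinear regression.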

Structure (SMILES): C[C@H]1CN(C(=O)OC(C)(C)C)CCN1c1ncnc2c1c(-c1ccccc1F)cn2-c1ccnnc1 [Compound 451, tert-butyl (S)-4-(5-(2-fluorophenyl)-7-(pyridazin-4-yl)-7H-pyrrolo[2,3-d]pyrimidin-4-yl)-3-methylpiperazine-1-carboxylate]
- EC50 (TRPML2): > 2000 nM
- EC50 (TRPML3): 100 to 500 nM
- EC50 (TRPML1): 100 to 500 nM

Structure (SMILES): C[C@H]1CN(C(=O)OC(C)(C)C)CCN1c1ncnc2c1c(C1CC1)cn2-c1ccc(C#N)n1C [Compound 456, tert-butyl (S)-4-(7-(5-cyano-1-methyl-1H-pyrrol-2-yl)-5-cyclopropyl-7H-pyrrolo[2,3-d]pyrimidin-4-yl)-3-methylpiperazine-1-carboxylate]
- EC50 (TRPML2): 500 to 2000 nM
- EC50 (TRPML3): 100 to 500 nM
- EC50 (TRPML1): 500 to 2000 nM

Structure (SMILES): C[C@@H]1CN(c2ncnc3c2c(-c2ccccc2F)cn3-c2nccc(C#N)n2)[C@@H](C)CN1C(=O)OC(C)(C)C [Compound 460, tert-butyl (2R,5S)-4-(7-(4-cyanopyrimidin-2-yl)-5-(2-fluorophenyl)-7H-pyrrolo[2,3-d]pyrimidin-4-yl)-2,5-dimethylpiperazine-1-carboxylate]
- EC50 (TRPML2): 100 to 500 nM
- EC50 (TRPML3): < 100 nM
- EC50 (TRPML1): < 100 nM

Structure (SMILES): Cc1nccnc1-c1cn(-c2cccc(Cl)c2)c2ncnc(N3C[C@@H](C)N(C(=O)OC(C)(C)C)C[C@@H]3C)c12 [Compound 461, tert-butyl (2R,5S)-4-(7-(3-chlorophenyl)-5-(3-methylpyrazin-2-yl)-7H-pyrrolo[2,3-d]pyrimidin-4-yl)-2,5-dimethylpiperazine-1-carboxylate]
- EC50 (TRPML2): 100 to 500 nM
- EC50 (TRPML3): < 100 nM
- EC50 (TRPML1): < 100 nM

Structure (SMILES): Cc1nccnc1-c1cn(-c2cc(F)cc(F)c2)c2ncnc(N3C[C@@H](C)N(C(=O)OC(C)(C)C)C[C@@H]3C)c12 [Compound 462, tert-butyl (2R,5S)-4-(7-(3,5-difluorophenyl)-5-(3-methylpyrazin-2-yl)-7H-pyrrolo[2,3-d]pyrimidin-4-yl)-2,5-dimethylpiperazine-1-carboxylate]
- EC50 (TRPML2): 100 to 500 nM
- EC50 (TRPML3): < 100 nM
- EC50 (TRPML1): < 100 nM

Structure (SMILES): CC(C)(C)OC(=O)N1CCN(c2ncnc3c2c(C2CCOCC2)cn3-c2cccc(Cl)c2)CC1 [Compound 465, tert-butyl 4-(7-(3-chlorophenyl)-5-(tetrahydro-2H-pyran-4-yl)-7H-pyrrolo[2,3-d]pyrimidin-4-yl)piperazine-1-carboxylate]
- EC50 (TRPML2): 500 to 2000 nM
- EC50 (TRPML3): < 100 nM
- EC50 (TRPML1): 100 to 500 nM

Structure (SMILES): CC1CN(C(=O)OC(C)(C)C)CCN1c1ncnc2c1c(C1CCOCC1)cn2-c1cccc(Cl)c1 (stereo not drawn) [Compound 466, tert-butyl 4-(7-(3-chlorophenyl)-5-(tetrahydro-2H-pyran-4-yl)-7H-pyrrolo[2,3-d]pyrimidin-4-yl)-3-methylpiperazine-1-carboxylate]
- EC50 (TRPML2): 500 to 2000 nM
- EC50 (TRPML3): < 100 nM
- EC50 (TRPML1): < 100 nM

Structure (SMILES): C[C@H]1CN(C(=O)OC(C)(C)C)CCN1c1ncnc2c1c(C1CCOCC1)cn2-c1cc(F)cc(F)c1 [Compound 468, tert-butyl (S)-4-(7-(3,5-difluorophenyl)-5-(tetrahydro-2H-pyran-4-yl)-7H-pyrrolo[2,3-d]pyrimidin-4-yl)-3-methylpiperazine-1-carboxylate]
- EC50 (TRPML2): > 2000 nM
- EC50 (TRPML3): 100 to 500 nM
- EC50 (TRPML1): 100 to 500 nM

Structure (SMILES): C[C@@H]1CN(C(=O)OC(C)(C)C)CCN1c1ncnc2c1c(C1CCOCC1)cn2-c1cccc(F)c1 [Compound 469, tert-butyl (R)-4-(7-(3-fluorophenyl)-5-(tetrahydro-2H-pyran-4-yl)-7H-pyrrolo[2,3-d]pyrimidin-4-yl)-3-methylpiperazine-1-carboxylate]
- EC50 (TRPML2): 500 to 2000 nM
- EC50 (TRPML3): 100 to 500 nM
- EC50 (TRPML1): 100 to 500 nM

Next, values leading:

- EC50 (TRPML2): < 100 nM
- EC50 (TRPML3): < 100 nM
- EC50 (TRPML1): < 100 nM
Structure (SMILES): C[C@H]1CN(C(=O)OC(C)(C)C)CCN1c1ncnc2c1c(-c1ccccc1F)cn2-c1cc(C#N)cnn1 [Compound 447, tert-butyl (S)-4-(7-(5-cyanopyridazin-3-yl)-5-(2-fluorophenyl)-7H-pyrrolo[2,3-d]pyrimidin-4-yl)-3-methylpiperazine-1-carboxylate]

- EC50 (TRPML2): 100 to 500 nM
- EC50 (TRPML3): < 100 nM
- EC50 (TRPML1): < 100 nM
Structure (SMILES): C[C@H]1CN(C(=O)OC(C)(C)C)CCN1c1ncnc2c1c(-c1ccccc1F)cn2-c1cnnc(C#N)c1 [Compound 448, tert-butyl (S)-4-(7-(6-cyanopyridazin-4-yl)-5-(2-fluorophenyl)-7H-pyrrolo[2,3-d]pyrimidin-4-yl)-3-methylpiperazine-1-carboxylate]

- EC50 (TRPML2): 100 to 500 nM
- EC50 (TRPML3): < 100 nM
- EC50 (TRPML1): < 100 nM
Structure (SMILES): C[C@H]1CN(C(=O)OC(C)(C)C)CCN1c1nccc2c1c(-c1ccccc1F)cn2-c1cc(C#N)ccn1 [Compound 449, tert-butyl (S)-4-(1-(4-cyanopyridin-2-yl)-3-(2-fluorophenyl)-1H-pyrrolo[3,2-c]pyridin-4-yl)-3-methylpiperazine-1-carboxylate]

- EC50 (TRPML2): 100 to 500 nM
- EC50 (TRPML3): < 100 nM
- EC50 (TRPML1): < 100 nM
Structure (SMILES): C[C@@H]1CN(c2ncnc3c2c(-c2ccccc2F)cn3-c2cc(F)ccn2)[C@@H](C)CN1C(=O)OC(C)(C)C [Compound 452, tert-butyl (2R,5S)-4-(5-(2-fluorophenyl)-7-(4-fluoropyridin-2-yl)-7H-pyrrolo[2,3-d]pyrimidin-4-yl)-2,5-dimethylpiperazine-1-carboxylate]

- EC50 (TRPML2): 100 to 500 nM
- EC50 (TRPML3): < 100 nM
- EC50 (TRPML1): < 100 nM
Structure (SMILES): C[C@H]1CN(C(=O)OC(C)(C)C)CCN1c1ncnc2c1c(C1CC1)cn2-c1cc(F)ccn1 [Compound 453, tert-butyl (S)-4-(5-cyclopropyl-7-(4-fluoropyridin-2-yl)-7H-pyrrolo[2,3-d]pyrimidin-4-yl)-3-methylpiperazine-1-carboxylate]

- EC50 (TRPML2): < 100 nM
- EC50 (TRPML3): < 100 nM
- EC50 (TRPML1): < 100 nM
Structure (SMILES): C[C@@H]1CN(c2ncnc3c2c(-c2ccccc2F)cn3-c2cc(Cl)ccn2)[C@@H](C)CN1C(=O)OC(C)(C)C [Compound 454, tert-butyl (2R,5S)-4-(7-(4-chloropyridin-2-yl)-5-(2-fluorophenyl)-7H-pyrrolo[2,3-d]pyrimidin-4-yl)-2,5-dimethylpiperazine-1-carboxylate]

- EC50 (TRPML2): 100 to 500 nM
- EC50 (TRPML3): < 100 nM
- EC50 (TRPML1): < 100 nM
Structure (SMILES): CC(C)(C)OC(=O)N1CCN(c2ncnc3c2c(-c2ccccc2F)cn3-c2ncc(C#N)s2)CC1 [Compound 455, tert-butyl 4-(7-(5-cyanothiazol-2-yl)-5-(2-fluorophenyl)-7H-pyrrolo[2,3-d]pyrimidin-4-yl)piperazine-1-carboxylate]

- EC50 (TRPML2): < 100 nM
- EC50 (TRPML3): < 100 nM
- EC50 (TRPML1): < 100 nM
Structure (SMILES): C[C@H]1CN(C(=O)OC(C)(C)C)CCN1c1ncnc2c1c(C1CC1)cn2-c1cc(Cl)ccn1 [Compound 457, tert-butyl(S)-4-(7-(4-chloropyridin-2-yl)-5-cyclopropyl-7H-pyrrolo[2,3-d]pyrimidin-4-yl)-3-methylpiperazine-1-carboxylate]

- EC50 (TRPML2): 100 to 500 nM
- EC50 (TRPML3): 100 to 500 nM
- EC50 (TRPML1): < 100 nM
Structure (SMILES): Cc1nccnc1-c1cn(-c2cc(C#N)ccn2)c2ncnc(N3C[C@@H](C)N(C(=O)OC(C)(C)C)C[C@@H]3C)c12 [Compound 458, tert-butyl (2R,5S)-4-(7-(4-cyanopyridin-2-yl)-5-(3-methylpyrazin-2-yl)-7H-pyrrolo[2,3-d]pyrimidin-4-yl)-2,5-dimethylpiperazine-1-carboxylate]

- EC50 (TRPML2): < 100 nM
- EC50 (TRPML3): < 100 nM
- EC50 (TRPML1): < 100 nM
Structure (SMILES): Cc1nc(-n2cc(-c3ccccc3F)c3c(N4CCN(C(=O)OC(C)(C)C)C[C@@H]4C)ncnc32)sc1C#N [Compound 463, tert-butyl (S)-4-(7-(5-cyano-4-methylthiazol-2-yl)-5-(2-fluorophenyl)-7H-pyrrolo[2,3-d]pyrimidin-4-yl)-3-methylpiperazine-1-carboxylate]
